Laboratory results from paper PMC10734772 (Turkish Journal of Chemistry, 2021).

Experiments:
Format in all cases: cell-based
Nalm-6 = experiment: MTT assay, Nalm-6 cells; settings: Homo sapiens, 24 h, MTT, read-out: Viability rate
K562 = experiment: MTT assay, K562 cells; settings: Homo sapiens, 24 h, MTT, read-out: Viability rate
Jurkat = experiment: MTT assay, Jurkat cells; settings: Homo sapiens, 24 h, read-out: Viability rate
Reh = experiment: MTT assay, Reh cells; settings: Homo sapiens, 24 h, read-out: Viability rate
[1] = MTT assay, Hek293T non-leukemic control cells; settings: human, Hek293T cells (non-leukemic control cell line), read-out: Viability rate
Molt-4 = experiment: MTT assay, Molt-4 cells; settings: Homo sapiens, MOLT-4, 24 h, read-out: Viability rate
[2] = tested on: K562, Nalm-6, Molt-4, Reh, Jurkat, Hek293T cell lines; experiment: MTT assay, overall judgement over all cell lines; settings: overall judgement in words; for 6 and 10: on all cell lines, except Reh
Outline: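 MTT viability assay run across a range of compound concentrations in leukemic lines, BCR-ABL positive K562 and BCR-ABL negative Nalm-6, Molt-4, Reh, Jurkat, plus non-leukemic Hek293T. Viability rate calculated per concentration.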

Work on `Cc1ccnc(Nc2cc(NC(=O)c3ccc(CN4CCN(c5ncccn5)CC4)cc3)ccc2C)n1` [Compound 5, N-(4-Methyl-3-((4-methylpyrimidin-2-yl)amino)phenyl)-4-((4-(pyrimidin-2-yl)piperazin-1-yl)methyl)benzamide] yielded a viability at 1 µM (Nalm-6; Nalm-6, 1 μM) of 95.8 ± 0.01%, a viability at 3 µM (Nalm-6; Nalm-6, 3 μM) of 95 ± 0.02% and a viability at 5 µM (Nalm-6; Nalm-6, 5 μM) of 92.4 ± 0.03%. For the same molecule, the viability at 10 µM (Nalm-6; Nalm-6, 10 μM) was 90.1 ± 0.02%, the viability at 15 µM (Nalm-6; Nalm-6, 15 μM) was 84.1 ± 0.01% and the viability at 20 µM (Nalm-6; Nalm-6, 20 μM) was 80.1 ± 0.02%. It also gave a viability at 30 µM (Nalm-6; Nalm-6, 30 μM) of 78.6 ± 0.01%, a viability at 50 µM (Nalm-6; Nalm-6, 50 μM) of 74.1 ± 0.01% and a viability at 70 µM (Nalm-6; Nalm-6, 70 μM) of 71.9 ± 0.01%. It also gave a viability at 100 µM (Nalm-6; Nalm-6, 100 μM) of 70.3 ± 0.01%, a viability at 150 µM (Nalm-6; Nalm-6, 150 μM) of 70.2 ± 0.01% and a viability at 200 µM (Nalm-6; Nalm-6, 200 μM) of 70.5 ± 0.01%. The viability at 1 µM (K562; K562, 1 μM) was 103.1 ± 0.07%, the viability at 3 µM (K562; K562, 3 μM) was 98.7 ± 0.08% and the viability at 5 µM (K562; K562, 5 μM) was 99.7 ± 0.06%. It also gave a viability at 10 µM (K562; K562, 10 μM) of 97 ± 0.05%, a viability at 15 µM (K562; K562, 15 μM) of 99.5 ± 0.12% and a viability at 20 µM (K562; K562, 20 μM) of 106.5 ± 0.04%. For the same molecule, the viability at 30 µM (K562; K562, 30 μM) was 102.7 ± 0.05%, the viability at 50 µM (K562; K562, 50 μM) was 101.6 ± 0.12% and the viability at 70 µM (K562; K562, 70 μM) was 100.1 ± 0.08%. For the same molecule, the viability at 100 µM (K562; K562, 100 μM) was 104.6 ± 0.1%, the viability at 150 µM (K562; K562, 150 μM) was 104.3 ± 0.1% and the viability at 200 µM (K562; K562, 200 μM) was 102.1 ± 0.14%. For the same molecule, the viability at 3 µM (Jurkat; 3 μM) was 90.1 ± 0.11%, the viability at 5 µM (Jurkat; 5 μM) was 89.7 ± 0.09% and the viability at 10 µM (Jurkat; 10 μM) was 89.6 ± 0.15%. The viability at 15 µM (Jurkat; 15 μM) was 88.8 ± 0.09%, the viability at 20 µM (Jurkat; 20 μM) was 88.8 ± 0.08% and the viability at 30 µM (Jurkat; 30 μM) was 88.1 ± 0.1%. The viability at 50 µM (Jurkat; 50 μM) was 83.4 ± 0.12%, the viability at 70 µM (Jurkat; 70 μM) was 82.5 ± 0.07% and the viability at 100 µM (Jurkat; 100 μM) was 80.8 ± 0.13%. The viability at 150 µM (Jurkat; 150 μM) was 78.7 ± 0.12%, the viability at 200 µM (Jurkat; 200 μM) was 66.5 ± 0.05% and the viability at 1 µM (Reh; 1 μM) was 96.6 ± 0.01%. For the same molecule, the viability at 3 µM (Reh; 3 μM) was 95.8 ± 0.05%, the viability at 5 µM (Reh; 5 μM) was 95.7 ± 0.03% and the viability at 10 µM (Reh; 10 μM) was 95.1 ± 0.04%. For the same molecule, the viability at 15 µM (Reh; 15 μM) was 94.9 ± 0.04%, the viability at 20 µM (Reh; 20 μM) was 90.2 ± 0.03% and the viability at 30 µM (Reh; 30 μM) was 87.9 ± 0.04%. The viability at 50 µM (Reh; 50 μM) was 85.5 ± 0.05%, the viability at 70 µM (Reh; 70 μM) was 81.4 ± 0.01% and the viability at 100 µM (Reh; 100 μM) was 79.1 ± 0.01%. The viability at 150 µM (Reh; 150 μM) was 79.1 ± 0.02%, the viability at 200 µM (Reh; 200 μM) was 74% and the viability at 24 h, 3 µM ([1]; 3 μM) was 66.5 ± 0.11%. It also gave a viability at 24 h, 5 µM ([1]; 5 μM) of 61 ± 0.13%, a viability at 24 h, 10 µM ([1]; 10 μM) of 59.4 ± 0.08% and a viability at 24 h, 15 µM ([1]; 15 μM) of 56.6 ± 0.1%. It also gave a viability at 24 h, 20 µM ([1]; 20 μM) of 56.2 ± 0.03%, a viability at 24 h, 30 µM ([1]; 30 μM) of 55.8 ± 0.05% and a viability at 24 h, 50 µM ([1]; 50 μM) of 54.1 ± 0.04%. For the same molecule, the viability at 24 h, 70 µM ([1]; 70 μM) was 52.7 ± 0.03%, the viability at 24 h, 100 µM ([1]; 100 μM) was 50.5 ± 0.02% and the viability at 24 h, 150 µM ([1]; 150 μM) was 50.4 ± 0.02%. The viability at 24 h, 200 µM ([1]; 200 μM) was 50 ± 0.04%, the viability at 1 µM (Molt-4; Molt-4, 1 μM) was 95.2 ± 0.08% and the viability at 3 µM (Molt-4; Molt-4, 3 μM) was 84.6 ± 0.04%. For the same molecule, the viability at 5 µM (Molt-4; Molt-4, 5 μM) was 85.1 ± 0.11%, the viability at 10 µM (Molt-4; Molt-4, 10 μM) was 84.8 ± 0.03% and the viability at 15 µM (Molt-4; Molt-4, 15 μM) was 84.9 ± 0.11%. For the same molecule, the viability at 20 µM (Molt-4; Molt-4, 20 μM) was 85.8 ± 0.03%, the viability at 30 µM (Molt-4; Molt-4, 30 μM) was 85.3 ± 0.06% and the viability at 50 µM (Molt-4; Molt-4, 50 μM) was 86.1 ± 0.11%. The viability at 70 µM (Molt-4; Molt-4, 70 μM) was 84.6 ± 0.05%, the viability at 100 µM (Molt-4; Molt-4, 100 μM) was 83.5 ± 0.12% and the viability at 150 µM (Molt-4; Molt-4, 150 μM) was 87.1 ± 0.09%. The viability at 200 µM (Molt-4; Molt-4, 200 μM) was 86.6 ± 0.08% and the “anticancer activity according to MTT assay results” value [2] was “very poor activity”.
